Results: ChEMBL document CHEMBL5614443, “Hybrids of 3-Hydroxypyridin-4(1H)-ones and Long-Chain 4-Aminoquinolines as Potent Biofilm Inhibitors of Pseudomonas aeruginosa Potentiate Tobramycin and Polymyxin B Activity” (J Med Chem, 2024)
Activity calls are given as the source filed them. The rule behind the calls is not given here.

How the values were obtained:
Pseudomonas aeruginosa [1] = experiment: Antibacterial activity against Pseudomonas aeruginosa PAO1 infected in Caenorhabditis elegans assessed as worm survival rate at 50 uM measured after 72 hrs in presence of tobramycin at 1/2 MIC by bright field microscopic analysis relative to control; type: functional
Pseudomonas aeruginosa [2] = experiment: Antibacterial activity against Pseudomonas aeruginosa clinical isolate 1065 assessed as inhibition of bacterial growth incubated for 24 hrs by CLSI protocol based method; type: functional, organism-based
Pseudomonas aeruginosa [3] = experiment: Synergistic antibacterial activity against Pseudomonas aeruginosa PAO1 assessed as fold reduction in bacterial survival rate incubated for 24 hrs in presence of tetracycline by LB agar plate method; type: functional
Pseudomonas aeruginosa [4] = experiment: Synergistic antibacterial activity against Pseudomonas aeruginosa clinical isolate 0815 assessed as reduction in bacterial viability at 10 to 50 uM incubated for 24 hrs in presence of 1/2 MIC of polymyxin B by LB agar plate method; type: functional, organism-based; settings: dose 10-50 µM
Pseudomonas aeruginosa [5] = experiment: Antibiofilm activity against Pseudomonas aeruginosa harboring pvds-deficient mutant assessed as inhibition of biofilm formation at 0.1 to 20 uM incubated for 24 hrs by crystal violet staining based analysis; type: functional, organism-based; settings: dose 0.1-20 µM
Pseudomonas aeruginosa [6] = experiment: Synergistic antibacterial activity against Pseudomonas aeruginosa clinical isolate 1167 assessed as reduction in bacterial viability at 10 to 50 uM incubated for 24 hrs in presence of 1/2 MIC of polymyxin B by LB agar plate method; type: functional, organism-based; settings: dose 10-50 µM
Pseudomonas aeruginosa [7] = experiment: Synergistic antibacterial activity against Pseudomonas aeruginosa clinical isolate 0815 assessed as reduction in bacterial viability at 10 to 50 uM incubated for 24 hrs in presence of 1/4 MIC of polymyxin B by LB agar plate method; type: functional, organism-based; settings: dose 10-50 µM
Pseudomonas aeruginosa [8] = experiment: Synergistic antibacterial activity against Pseudomonas aeruginosa PAO1 assessed as fold reduction in bacterial survival rate incubated for 24 hrs in presence of norfloxacin by LB agar plate method; type: functional
Pseudomonas aeruginosa [9] = experiment: Synergistic antibacterial activity against Pseudomonas aeruginosa PAO1 assessed as reduction in cell viability at 10 to 50 uM incubated for 24 hrs in the presence of 1/4 MIC of tobramycin by LB agar plate method; type: functional, organism-based; settings: dose 10-50 µM
Pseudomonas aeruginosa [10] = experiment: Synergistic antibacterial activity against Pseudomonas aeruginosa clinical isolate 1167 assessed as reduction in bacterial viability at 10 to 50 uM incubated for 24 hrs in presence of 1/4 MIC of polymyxin B by LB agar plate method; type: functional, organism-based; settings: dose 10-50 µM
Pseudomonas aeruginosa [11] = experiment: Antibacterial activity against Pseudomonas aeruginosa clinical isolate 0815 assessed as inhibition of bacterial growth incubated for 24 hrs by CLSI protocol based method; type: functional, organism-based
Pseudomonas aeruginosa [12] = experiment: Antivirulence activity in Pseudomonas aeruginosa clinical isolate 1167 assessed as reduction in pyocyanin production at 10 uM incubated for 24 hrs by absorbance based analysis; type: functional, organism-based
[13] = Cytotoxicity against African green monkey Vero cells assessed as reduction in cell viability incubated for 24 hrs by MTT assay; type: toxicity, cell-based; settings: chlorocebus sabaeus
[14] = Cytotoxicity against African green monkey Vero cells assessed as reduction in cell viability at <=100 uM incubated for 24 hrs by MTT assay; type: toxicity, cell-based; settings: chlorocebus sabaeus
Pseudomonas aeruginosa [15] = experiment: Antibacterial activity against Pseudomonas aeruginosa PAO1 infected in Caenorhabditis elegans assessed as worm survival rate at 10 uM measured after 96 hrs in presence of polymyxin B at 1/2 MIC by bright field microscopic analysis relative to control; type: functional
[16] = Inhibition of quorum sensing system in Pseudomonas aeruginosa PAO1 transfected with mini-ctx-lacZ reporter gene assessed as decrease in beta-galactosidase activity at 1.25 to 20 uM incubated for 6 hrs by Miller assay; settings: dose 1.25-20 µM
Pseudomonas aeruginosa [17] = experiment: Induction of Fe3+ chelating activity in Pseudomonas aeruginosa PAO1 assessed as increase in pyoverdine production by measuring fold change at 50 uM incubated for 24 hrs by fluorescence microplate reader
Pseudomonas aeruginosa [18] = experiment: Synergistic antibacterial activity against Pseudomonas aeruginosa PAO1 assessed as fold reduction in bacterial survival rate at 50 uM incubated for 24 hrs in presence of 1/2 MIC of tobramycin by LB agar plate method relative to tobramycin alone; type: functional
Pseudomonas aeruginosa [19] = experiment: Antibacterial activity against Pseudomonas aeruginosa clinical isolate 1167 assessed as inhibition of bacterial growth incubated for 24 hrs by CLSI protocol based method; type: functional, organism-based
Pseudomonas aeruginosa [20] = experiment: Antivirulence activity in Pseudomonas aeruginosa clinical isolate 1121 assessed as reduction in pyocyanin production at 10 uM incubated for 24 hrs by absorbance based analysis; type: functional, organism-based
Pseudomonas aeruginosa [21] = experiment: Antibiofilm activity against Pseudomonas aeruginosa PAO1 assessed as inhibition of biofilm formation incubated for 24 hrs by crystal violet staining based analysis; type: functional, organism-based; settings: PAO1, 24 h
Pseudomonas aeruginosa [22] = experiment: Synergistic antibacterial activity against Pseudomonas aeruginosa clinical isolate 0815 assessed as reduction in bacterial viability at 10 to 50 uM incubated for 24 hrs in presence of 1/2 MIC of tobramycin by LB agar plate method; type: functional, organism-based; settings: dose 10-50 µM
Pseudomonas aeruginosa [23] = experiment: Synergistic antibacterial activity against Pseudomonas aeruginosa clinical isolate 1121 assessed as reduction in bacterial viability at 10 to 50 uM incubated for 24 hrs in presence of 1/8 MIC of tobramycin by LB agar plate method; type: functional, organism-based; settings: dose 10-50 µM
Pseudomonas aeruginosa [24] = experiment: Antibacterial activity against Pseudomonas aeruginosa clinical isolate FB assessed as inhibition of bacterial growth incubated for 24 hrs by CLSI protocol based method; type: functional, organism-based
Pseudomonas aeruginosa [25] = experiment: Antibacterial activity against Pseudomonas aeruginosa PAO1 infected in Caenorhabditis elegans assessed as worm survival at 50 uM by bright-field microscopic analysis (reference value: 24 hrs); type: functional
Pseudomonas aeruginosa [26] = experiment: Synergistic antibacterial activity against Pseudomonas aeruginosa clinical isolate 1121 assessed as reduction in bacterial viability at 10 to 50 uM incubated for 24 hrs in presence of 1/4 MIC of tobramycin by LB agar plate method; type: functional, organism-based; settings: dose 10-50 µM
Pseudomonas aeruginosa [27] = experiment: Antibiofilm activity against Pseudomonas aeruginosa PAO1 assessed as decrease in biofilm formation incubated for 24 hrs by LIVE/DEAD BacLight staining based 3D confocal laser scanning microscopy; type: functional, organism-based; settings: dose 1-10 µM
Pseudomonas aeruginosa [28] = experiment: Antivirulence activity in Pseudomonas aeruginosa clinical isolate 1121 assessed as reduction in elastase production at 10 uM incubated for 24 hrs by elastin-congo red dye based absorbance assay; type: functional, organism-based
Pseudomonas aeruginosa [29] = experiment: Synergistic antibacterial activity against Pseudomonas aeruginosa PAO1 assessed as fold reduction in bacterial survival rate incubated for 24 hrs in presence of erythromycin by LB agar plate method; type: functional
Pseudomonas aeruginosa [30] = experiment: Induction of Fe3+ chelating activity in Pseudomonas aeruginosa PAO1 assessed as increase in pyoverdine production by measuring fold change at 20 uM incubated for 24 hrs by fluorescence microplate reader
[31] = Hemolytic activity in rabbit erythrocytes assessed as hemolysis rate at 200 uM incubated for 2 hrs by microplate reader analysis (reference value: 100 %); type: toxicity, cell-based, Oryctolagus cuniculus, Erythrocyte; settings: read-out: Activity
Pseudomonas aeruginosa [32] = experiment: Antibacterial activity against Pseudomonas aeruginosa PA14 assessed as inhibition of bacterial growth incubated for 24 hrs by CLSI protocol based method; type: functional, organism-based
[33] = Inhibition of quorum sensing system in Pseudomonas aeruginosa PAO1 transfected with mini-ctx-rhlA-lacZ reporter gene assessed as decrease in beta-galactosidase activity incubated for 6 hrs by Miller assay; settings: dose 1.25-20 µM
Pseudomonas aeruginosa [34] = experiment: Synergistic antibacterial activity against Pseudomonas aeruginosa PAO1 assessed as fold reduction in bacterial survival rate incubated for 24 hrs in presence of ciprofloxacin by LB agar plate method; type: functional
[35] = Inhibition of quorum sensing system in wildtype Pseudomonas aeruginosa PAO1 assessed as inhibition of pyocyanin production incubated for 24 hrs by absorbance based analysis

Cc1cc(=O)c(O)c(C(=O)NCCCCCCCCNc2ccnc3cc(Cl)ccc23)n1C.Cl
survival at 50 µM (Pseudomonas aeruginosa [1]): 81.5%
Activity (Pseudomonas aeruginosa [2]): inactive
fold change (FC) (Pseudomonas aeruginosa [3]): <10
Activity (Pseudomonas aeruginosa [4]): Active
Activity (Pseudomonas aeruginosa [5]): Active
Activity (Pseudomonas aeruginosa [6]): Active
Activity (Pseudomonas aeruginosa [7]): Active
fold change (FC) (Pseudomonas aeruginosa [8]): <10
Activity (Pseudomonas aeruginosa [9]): Active
Activity (Pseudomonas aeruginosa [10]): Active
Activity (Pseudomonas aeruginosa [11]): inactive
Activity (Pseudomonas aeruginosa [12]): Active
CC50 at 24 h [13]: > 800 µM
Activity [14]: Non-Toxic
survival at 10 µM (Pseudomonas aeruginosa [15]): 32.1%
inhibition [16]: inactive
fold change (FC) (Pseudomonas aeruginosa [17]): 16
fold change (FC) (Pseudomonas aeruginosa [18]): ~60
Activity (Pseudomonas aeruginosa [19]): inactive
Activity (Pseudomonas aeruginosa [20]): Active
IC50 (Pseudomonas aeruginosa [21]): 5.8 µM
Activity (Pseudomonas aeruginosa [22]): Active
Activity (Pseudomonas aeruginosa [23]): Active
Activity (Pseudomonas aeruginosa [24]): inactive
Survival (Pseudomonas aeruginosa [25]): 56 h
Activity (Pseudomonas aeruginosa [26]): Active
Activity (Pseudomonas aeruginosa [27]): Dose-Dependent Effect
Activity (Pseudomonas aeruginosa [28]): Active
fold change (FC) (Pseudomonas aeruginosa [29]): <10
fold change (FC) (Pseudomonas aeruginosa [30]): 10
hemolysis at 2 h, 200 µM [31]: < 1.5%
Activity (Pseudomonas aeruginosa [32]): inactive
inhibition [33]: Dose-Dependent Effect
fold change (FC) (Pseudomonas aeruginosa [34]): <10
IC50 [35]: 6.9 µM
